From US20240174639A1, “PYRIDINE DERIVATIVES USEFUL AS HCN2 MODULATORS” (King's College London, priority 2021, published 2024)
Structures can show the parent of a compound that is named as a salt.

How the values were obtained:
Format in all cases: cell-based
[1] = molecular target: T1, HCN2 (Homo sapiens, UniProt Q9UL51); test: HCN2 assay using PatchXpress 7000A (Example 50A); conditions: PatchXpress protocol (PX)
T1 sequence (Q9UL51 1-889): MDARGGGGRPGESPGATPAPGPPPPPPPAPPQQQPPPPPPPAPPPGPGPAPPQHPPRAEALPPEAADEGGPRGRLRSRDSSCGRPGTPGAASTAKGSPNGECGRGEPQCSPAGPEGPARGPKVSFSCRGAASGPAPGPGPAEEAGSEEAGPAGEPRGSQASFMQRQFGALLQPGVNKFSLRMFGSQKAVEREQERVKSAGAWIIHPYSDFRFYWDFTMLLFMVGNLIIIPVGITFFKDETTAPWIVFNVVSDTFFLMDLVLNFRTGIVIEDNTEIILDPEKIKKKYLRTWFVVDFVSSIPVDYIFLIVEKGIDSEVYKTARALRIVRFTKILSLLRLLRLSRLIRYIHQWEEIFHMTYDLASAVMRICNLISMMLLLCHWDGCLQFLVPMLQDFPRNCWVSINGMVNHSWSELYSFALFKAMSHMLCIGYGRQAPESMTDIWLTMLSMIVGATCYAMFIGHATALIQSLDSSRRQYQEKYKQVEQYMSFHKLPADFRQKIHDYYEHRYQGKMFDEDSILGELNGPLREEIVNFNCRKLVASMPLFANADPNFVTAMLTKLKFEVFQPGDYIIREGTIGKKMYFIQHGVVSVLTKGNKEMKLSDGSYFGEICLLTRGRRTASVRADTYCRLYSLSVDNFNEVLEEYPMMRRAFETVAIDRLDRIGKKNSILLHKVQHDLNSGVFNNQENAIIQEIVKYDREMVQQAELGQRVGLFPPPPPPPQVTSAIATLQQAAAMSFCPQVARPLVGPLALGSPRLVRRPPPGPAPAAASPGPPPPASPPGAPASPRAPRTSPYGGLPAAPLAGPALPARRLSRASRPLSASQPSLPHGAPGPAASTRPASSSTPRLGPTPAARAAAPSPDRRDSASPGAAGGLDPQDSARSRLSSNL
From the text: (§1) Solutions for recording HON currents were:
For HCN1 and HCN2, the pulse protocol involved stepping from a holding potential of −30 mV to −110 mV (see FIG. 1A) for 2 seconds to evoke the current. The membrane voltage was then stepped back to −30 mV for a further 8 seconds. This sequence was evoked repeatedly every 10 seconds throughout the experiment, starting prior to drug (Control A) and during cumulative additions of 5 increasing compound concentrations, then finally a 100% inhibiting concentration of cesium chloride (CsCl, 3 mM).
(§2) The peak inward current measured at the end of the pulse to −110 mV (HCN1 and HCN2) or −130 mV (HCN4) was measured and any leak current subtracted to calculate the HCN current. The HCN current amplitude was measured after each control or compound addition and normalized to the control amplitude (Control A).
(§3) All experiments were performed at room temperature (approximately 22° C.).
(§4) Each test compound concentration was applied to the cell for seven (7) minutes, at which point the next cumulative concentration was applied. 3 mM CsCl was applied to each cell for 2 minutes at the end of each experiment (Control B) to determine 100% inhibition level of the HCN current.

[2] = molecular target: T2, HCN4 (Homo sapiens, UniProt Q9Y3Q4); test: HCN4 assay using PatchXpress 7000A (Example 50A); conditions: PatchXpress protocol (PX)
T2 sequence (Q9Y3Q4 1-1203): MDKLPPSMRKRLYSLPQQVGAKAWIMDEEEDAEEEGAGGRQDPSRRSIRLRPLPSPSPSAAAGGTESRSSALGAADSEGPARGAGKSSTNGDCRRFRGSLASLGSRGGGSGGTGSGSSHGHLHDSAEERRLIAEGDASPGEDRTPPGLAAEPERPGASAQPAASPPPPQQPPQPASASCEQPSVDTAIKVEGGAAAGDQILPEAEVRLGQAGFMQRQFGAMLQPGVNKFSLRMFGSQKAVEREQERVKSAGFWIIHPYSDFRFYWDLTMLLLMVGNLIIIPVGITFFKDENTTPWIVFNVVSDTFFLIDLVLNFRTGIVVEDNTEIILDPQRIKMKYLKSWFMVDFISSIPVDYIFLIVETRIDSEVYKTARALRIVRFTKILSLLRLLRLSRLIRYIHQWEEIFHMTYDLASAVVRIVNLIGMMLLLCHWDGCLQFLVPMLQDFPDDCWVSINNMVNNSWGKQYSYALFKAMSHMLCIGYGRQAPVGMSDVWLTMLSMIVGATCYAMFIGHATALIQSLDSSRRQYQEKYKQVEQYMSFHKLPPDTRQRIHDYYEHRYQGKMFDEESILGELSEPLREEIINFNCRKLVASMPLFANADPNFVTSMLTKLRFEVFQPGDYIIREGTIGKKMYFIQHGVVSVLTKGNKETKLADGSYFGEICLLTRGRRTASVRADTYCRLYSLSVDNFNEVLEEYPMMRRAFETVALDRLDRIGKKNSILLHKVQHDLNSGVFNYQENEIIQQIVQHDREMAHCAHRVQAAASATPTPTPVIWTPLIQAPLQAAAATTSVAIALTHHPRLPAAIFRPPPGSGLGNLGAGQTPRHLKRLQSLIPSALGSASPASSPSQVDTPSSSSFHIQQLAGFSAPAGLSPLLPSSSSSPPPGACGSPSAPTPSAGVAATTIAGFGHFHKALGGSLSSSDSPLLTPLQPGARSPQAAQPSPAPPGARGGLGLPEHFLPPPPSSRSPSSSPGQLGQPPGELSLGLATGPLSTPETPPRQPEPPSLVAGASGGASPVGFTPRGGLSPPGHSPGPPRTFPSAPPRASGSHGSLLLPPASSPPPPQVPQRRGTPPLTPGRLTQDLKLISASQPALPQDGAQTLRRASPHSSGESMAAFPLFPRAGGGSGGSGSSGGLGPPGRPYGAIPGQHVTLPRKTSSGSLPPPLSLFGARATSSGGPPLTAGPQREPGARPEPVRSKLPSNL
Description: as §1
For HCN4, the pulse protocol involved stepping from a holding potential of −30 mV to −130 mV (see FIG. 1B) for 4 seconds to evoke the current.
as §2, §3, §4

[3] = molecular target: T1, HCN2; test: HCN2 assay using the Sophion Qube (Example 50B); conditions: Sophion Qube protocol (SQ)
Description: Solutions for recording HCN currents were:
For HCN1 and HCN2 the cells were held at −30 mV and then stepped to −110 mV for 2 seconds before stepping back to −30 mV, this represents 1 experimental sweep. This voltage protocol was applied every 20 seconds for the duration of the experiment. Both the vehicle (0.3% DMSO) and full block (3 mM CsCl) addition periods were applied for 10 experimental sweeps each. The compound addition period was applied for 30 sweeps.
The currents evoked by the step to −110 mV (HCN1 and HCN2) or −130 mV (HCN4) were measured for the analysis of the percentage inhibition by test compounds. The current amplitudes were measured by subtracting metric A from metric B (see FIG. 2) with inhibition calculated by normalising to the vehicle addition (0.3% DMSO) and full inhibition by 3 mM CsCl in the same well.
In total, compound was applied to the well for 600 seconds.

[4] = molecular target: T2, HCN4; test: HCN4 assay using the Sophion Qube (Example 50B); conditions: Sophion Qube protocol (SQ)
Description: Solutions for recording HCN currents were: [table] For HCN4, the cells were held at −30 mV and then stepped to −130 mV for 4 seconds before stepping back to −30 mV, this represents 1 experimental sweep. This voltage protocol was applied every 20 seconds for the duration of the experiment. Both the vehicle (0.3% DMSO) and full block (3 mM CsCl) addition periods were applied for 10 experimental sweeps each. The compound addition period was applied for 30 sweeps. The currents evoked by the step to −110 mV (HCN1 and HCN2) or −130 mV (HCN4) were measured for the analysis of the percentage inhibition by test compounds. The current amplitudes were measured by subtracting metric A from metric B (see FIG. 2) with inhibition calculated by normalising to the vehicle addition (0.3% DMSO) and full inhibition by 3 mM CsCl in the same well. […] In total, compound was applied to the well for 600 seconds.

Row | IC50 [1] | IC50 [2] | IC50 [3] | IC50 [4] | SMILES
1 | 180 nM | 7500 nM | – | – | N#Cc1ccc(F)c(C[C@H](N)c2ncccc2-n2ncc3ccccc32)n1 [Example 23, (S)-6-{2-[3-(1H-ind-azol-1-yl)pyridine-2-yl]-2-aminoethyl}-5-fluoropyridine-2-carbonitrile formate]
2 | 340 nM | 1600 nM | – | – | CCc1ccc(F)c(C[C@H](N)c2ncccc2-n2ncc3ccccc32)n1 [Example 25, (S)-1-[3-(1H-indazole-1-yl)pyridine-2-yl]-2-(3-fluoro-6-ethylpyr-idine-2-yl)ethan-1-amine hydrochloride]
3 | – | – | 28600 nM | – | COc1ccc2c(cnn2-c2cccnc2[C@@H](N)Cc2ncccc2F)c1 [Example 32, (S)-2-(3-fluoropyridine-2-yl)-1-[3-(5-methoxy-1H-indazole-1-yl)-pyridine-2-yl]ethan-1-amine hydrochloride]
4 | – | – | 4900 nM | – | Cc1ccc(C#N)nc1C[C@H](N)c1ncccc1-n1ncc2cc(C(F)(F)F)ccc21 [Example 33, (S)-6-{2-Amino-2-[3-(5-trifluoromethyl-1H-indazol-1-yl)pyridine-2-yl]ethyl}-5-methyl-pyridine-2-carbonitrile hydrochloride]
5 | – | – | 4500 nM | – | Cc1ccc(F)c(C[C@H](N)c2ncccc2-n2ncc3cc(F)ccc32)n1 [Example 34, (S)-1-[3-(5-Fluoro-1H-indazole-1-yl)pyridine-2-yl]-2-(3-fluoro-6-methylpyridine-2-yl)-ethan-1-amine hydro-chloride]
6 | – | – | 6700 nM | – | COc1ccc2c(cnn2-c2cccnc2[C@@H](N)Cc2nc(C#N)ccc2F)c1 [Example 37]
7 | – | – | 11700 nM | – | N[C@@H](Cc1ncccc1F)c1ncccc1-n1ncc2cc(C(F)(F)F)ccc21 [Example 40, (S)-1-[3-(5-Trifluoro-methyl-1H-indazole-1-yl)pyridine-2-yl]-2-(3-fluoropyridine-2-yl)-ethan-1-amine hydro-chloride]
8 | – | – | 4900 nM | – | Cc1ccc(C#N)nc1C[C@H](N)c1cnccc1-n1ncc2cc(Cl)ccc21 [Example 42, (S)-6-{2-Amino-2-[4-(5-chloro-1H-indazol-1-yl)pyridine-3-yl]-ethyl}-5-methylpyr-idine-2-carbonitrile hydrochloride]
9 | – | – | 780 nM | – | N#Cc1ccc(F)c(C[C@H](N)c2ncccc2-n2ncc3cc(Br)ccc32)n1 [Example 43, (S)-6-{2-Amino-2-[3-(5-bromo-1H-indazol-1-yl)pyridine-2-yl-ethyl}-5-fluoropyr-idine-2-carbonitrile hydrochloride]
10 | – | – | 1200 nM | – | N#Cc1nc(C[C@H](N)c2ncccc2-n2ncc3cc(Br)ccc32)ccc1F [Example 46, (S)-6-{2-Amino-2-[3-(5-bromo-1H-indazol-1-yl)pyridine-2-yl]-ethyl}-3-fluoropyr-idine-2-carbonitrile hydrochloride]

Second part, the compound before the results:

Row | SMILES | IC50 [1] | IC50 [2] | IC50 [3] | IC50 [4]
11 | CS(=O)(=O)c1ccc(F)c(C[C@H](N)c2ncccc2-n2ncc3ccccc32)n1 [Example 21, (S)-1-[3-(1H-indazole-1-yl)pyridine-2-yl]-2-(3-fluoro-6-methyl-sulfonylpyridine-2-yl)-ethan-1-amine formate] | 1100 nM | ≥ 30000 nM | – | –
12 | N#Cc1nc(C[C@H](N)c2ncccc2-n2ncc3ccccc32)ccc1F [Example 22, (S)-6-{2-[3-(1H-ind-azol-1-yl)pyridine-2-yl]-2-aminoethyl}-3-fluoropyridine-2-carbonitrile hydro-chloride] | 320 nM | 13400 nM | – | –
13 | Cc1cc(F)cnc1C[C@H](N)c1ncccc1-n1ncc2ccccc21 [Example 26, (S)-1-[3-(1H-indazole-1-yl)pyridine-2-yl]-2-(5-fluoro-3-methyl-pyridine-2-yl)ethan-1-amine hydrochloride] | 15 nM | 500 nM | – | –
14 | N[C@@H](Cc1ncccc1F)c1ncccc1-n1ncc2cc(F)ccc21 [Example 28, (S)-1-[3-(5-Fluoro-1H-indazole-1-yl)pyridine-2-yl]-2-(3-fluoropyr- -idine-2-yl)ethan-1-amine hydrochloride] | 1000 nM | > 30000 nM | – | –
15 | Cc1cccnc1C[C@H](N)c1ncccc1-n1ncc2cc(Br)ccc21 [Example 30, (S)-1-[3-(5-Bromo-1H-indazole-1-yl)pyridine-2-yl]-2-(3-methylpyr-idine-2-yl)ethan-1-amine hydrochloride] | – | – | 900 nM | 22500 nM
16 | Cc1ccc(C#N)nc1C[C@H](N)c1ncccc1-n1ncc2cc(Cl)ccc21 [Example 35, (S)-6-{2-Amino-2-[3-(5-chloro-1H-indazol-1-yl)pyridine-2-yl]-ethyl}-5-methylpyr-idine-2-carbonitrile] | – | – | 460 nM | 4300 nM
17 | Cc1ccc(F)c(C[C@H](N)c2ncccc2-n2ncc3cc(Cl)ccc32)n1 [Example 44, (S)-1-[3-(5-Chloro-1H-indazole-1-yl)pyridine-2-yl]-2-(3-fluoro-6-methylpyridine-2-yl)-ethan-1-amine hydro-chloride] | – | – | 1500 nM | –
